{"source": "patent US12433876B2", "about": "“Septin inhibitors for treatment of cancers” (UNIVERSITY OF ROCHESTER, priority 2019, dated 2025)", "system": "PANC-1 cells", "assay": "Live/Dead dye flow cytometry, PANC-1", "format": "cell-based, human", "conditions": "PANC-1, 3 μM", "description": "Cell Lines, Cell Culture, and Reagents. PANC-1, BXPC-3 and CAPAN-1, SKOV-3, MCF7, MDA-MD-231 cells were obtained from ATCC and maintained in DMEM, RPMI-1640 and IMDM supplemented with 10% fetal calf serum penicillin (100 units/mL), and streptomycin (100 μg/mL) at 37° C. with 5% CO2 in a humidified incubator. JIMT-1 cells were purchased from AddexBio Inc, USA (catalog number: C0006005) and maintained in 10% FBS and antibiotic supplemented DMEM. […] The reaction was monitored using thin-layer chromatography plates with DCM-MeOH or pure ethyl acetate as eluent. Spots were monitored in a UV chamber. […] ICM scores for each compound and their poses were calculated and compared with FCF. […] Cell viability of PANC-1, BXPC-3 and CAPAN-1 pancreatic cancer cells treated with UR214-9 was measured using the Cell Titre96R Aqueous One Solution Cell Proliferation Assay (Promega Corp., catalog number: G3580) following the procedure published earlier. […] The cells were analyzed by a 305 flow cytometer and relative live and dead cell population was calculated by inputting equal number of cells in both vehicle and control group.", "data": [{"smiles": "O=C(Nc1cc(Cl)nc(Cl)c1)Nc1cccc(SC(F)(F)F)c1F", "note": "[UR214-9]", "values": [{"measurement": "dead-cell population", "result": "over 38%"}]}]}
